From patent US10562859B2, “Aryl sulfonamide compounds as carbonic anhydrase inhibitors and their therapeutic use” (SignalChem LifeSciences Corporation, priority 2015, dated 2020) come the findings set out here.

One test addresses recombinant human CAIX (Homo sapiens, UniProt Q16790). Put plainly: Stopped-flow CA-catalyzed CO2 hydration assay, CAIX. Particulars: pH 7.4, inhibitor and enzyme pre-incubated 15 minutes at room temperature. The test is classed as biochemical. As to the method:
(§1) An Applied Photophysics stopped-flow instrument was used for assaying the CA-catalyzed CO2 hydration activity. […] The CO2 concentrations ranged from 1.7 to 17 mM for the determination of the kinetic parameters and inhibition constants. For each inhibitor, at least six traces of the initial 5-10% of the reaction were used for determining the initial velocity. The uncatalyzed rates were determined in the same manner and subtracted from the total observed rates. Stock solutions of inhibitor (10 mM) were prepared in distilled-deionized water, and dilutions up to 0.01 nM were done thereafter with distilled-deionized water. Inhibitor and enzyme solutions were pre-incubated together for 15 minutes at room temperature prior to assay in order to allow for the formation of the E-I complex. The inhibition constants were obtained by nonlinear least-squares methods using PRISM 3, whereas the kinetic parameters for the uninhibited enzymes were from Lineweaver-Burk plots, and represent the mean from at least three different determinations.

The target of another test is recombinant human CAXII (Homo sapiens, UniProt O43570). Description: Stopped-flow CA-catalyzed CO2 hydration assay, CAXII. The test is classed as biochemical. Particulars: pH 7.4, inhibitor and enzyme pre-incubated 15 minutes at room temperature. As to the method:
as §1

Molecules are shown by their SMILES. Bounds are passed on as bounds.

As a reminder, the Ki is a dissociation constant, usually derived from enzyme kinetics or from competition with a known ligand.

Sequence of recombinant human CAXII (O43570 25-354): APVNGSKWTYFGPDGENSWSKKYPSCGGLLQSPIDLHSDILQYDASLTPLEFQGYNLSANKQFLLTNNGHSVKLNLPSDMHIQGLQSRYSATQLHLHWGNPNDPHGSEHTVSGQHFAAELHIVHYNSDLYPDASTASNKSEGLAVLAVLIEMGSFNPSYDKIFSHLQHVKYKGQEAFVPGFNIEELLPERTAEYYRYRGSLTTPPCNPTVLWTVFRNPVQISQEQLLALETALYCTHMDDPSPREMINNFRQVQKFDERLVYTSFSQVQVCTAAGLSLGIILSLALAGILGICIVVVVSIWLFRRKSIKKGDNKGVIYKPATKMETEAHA

`NS(=O)(=O)c1ccc(N2CCN(c3cccc(F)c3)C2=O)cc1` [Example 1, 4-(3-(3-fluorophenyl)-2-oxoimidazolidin-1-yl)benzenesulfonamide]: the “Ki (nM) CAIX” value at recombinant human CAIX was “++ (“++” represents the 100 nM<Ki<10 nM)”. Moreover, the “Ki (nM) CAXII” value at recombinant human CAXII is given as “++ (“++” represents the 100 nM<Ki<10 nM)”.
For the molecule `Cc1cc(C)cc(N2CCN(c3ccc(S(N)(=O)=O)cc3)C2=O)c1` [Example 2, 4-(3-(3,5-dimethylphenyl)-2-oxoimidazolidin-1-yl)benzenesulfonamide], on recombinant human CAIX, the “Ki (nM) CAIX” value is on record as “++ (“++” represents the 100 nM<Ki<10 nM)”. Also, on recombinant human CAXII, the “Ki (nM) CAXII” value is given as “++ (“++” represents the 100 nM<Ki<10 nM)”.
Regarding `COc1cc(N2CCN(c3ccc(S(N)(=O)=O)cc3)C2=O)cc(OC)c1OC` [Example 3, 4-(2-oxo-3-(3,4,5-trimethoxyphenyl)imidazolidin-1-yl)benzenesulfonamide], the Ki on recombinant human CAIX is under 10 nM. The “Ki (nM) CAXII” value at recombinant human CAXII is on record as “++ (“++” represents the 100 nM<Ki<10 nM)”.
As to `NS(=O)(=O)c1ccc(N2CCN(C3CCCC3)C2=O)cc1` [Example 4, 4-(3-cyclopentyl-2-oxoimidazolidin-1-yl)benzenesulfonamide], the “Ki (nM) CAIX” value on recombinant human CAIX is listed as “++ (“++” represents the 100 nM<Ki<10 nM)”. The “Ki (nM) CAXII” value at recombinant human CAXII was “++ (“++” represents the 100 nM<Ki<10 nM)”.
In the case of `NS(=O)(=O)c1ccc(N2CCN(C3CCCCC3)C2=O)cc1` [Example 5, 4-(3-cyclohexyl-2-oxoimidazolidin-1-yl)benzenesulfonamide], the “Ki (nM) CAIX” value on recombinant human CAIX is given as “++ (“++” represents the 100 nM<Ki<10 nM)”. Besides, the “Ki (nM) CAXII” value at recombinant human CAXII is “++ (“++” represents the 100 nM<Ki<10 nM)”.
As for `NS(=O)(=O)c1ccc(N2CCN(c3ccc(Br)cc3F)C2=O)cc1` [Example 6, 4-(3-(4-bromo-2-fluorophenyl)-2-oxoimidazolidin-1-yl)benzenesulfonamide], the “Ki (nM) CAIX” value on recombinant human CAIX is recorded as “++ (“++” represents the 100 nM<Ki<10 nM)”. Besides, the “Ki (nM) CAXII” value on recombinant human CAXII is “++ (“++” represents the 100 nM<Ki<10 nM)”.
In the case of `NS(=O)(=O)c1ccc(N2CCN(c3ccc(Cl)cc3F)C2=O)cc1` [Example 7, 4-(3-(4-chloro-2-fluorophenyl)-2-oxoimidazolidin-1-yl)benzenesulfonamide], the Ki at recombinant human CAIX is under 10 nM. Moreover, the “Ki (nM) CAXII” value at recombinant human CAXII was “++ (“++” represents the 100 nM<Ki<10 nM)”.
Take `NS(=O)(=O)c1ccc(N2CCN(c3ccc(C(F)(F)F)cc3)C2=O)cc1` [Example 8, 4-(2-oxo-3-(4-(trifluoromethyl)phenyl)imidazolidin-1-yl)benzenesulfonamide]: the Ki at recombinant human CAIX and on recombinant human CAXII was under 10 nM each time.
As to `NS(=O)(=O)c1ccc(N2CCN(Cc3ccc(F)cc3)C2=O)cc1` [Example 9, 4-(3-(4-fluorobenzyl)-2-oxoimidazolidin-1-yl)benzenesulfonamide], the “Ki (nM) CAIX” value at recombinant human CAIX is reported as “++ (“++” represents the 100 nM<Ki<10 nM)”. On recombinant human CAXII, the “Ki (nM) CAXII” value is recorded as “++ (“++” represents the 100 nM<Ki<10 nM)”.
As for `NS(=O)(=O)c1ccc(N2CCN(CC3CC3)C2=O)cc1` [Example 10, 4-(3-(cyclopropylmethyl)-2-oxoimidazolidin-1-yl)benzenesulfonamide], the Ki at recombinant human CAIX and at recombinant human CAXII was under 10 nM throughout.
Take `CC(C)c1ccccc1N1CCN(c2ccc(S(N)(=O)=O)cc2)C1=O` [Example 11, 4-(3-(2-isopropylphenyl)-2-oxoimidazolidin-1-yl)benzenesulfonamide]: the Ki at recombinant human CAIX and on recombinant human CAXII was under 10 nM in each case.
Take `NS(=O)(=O)c1ccc(N2CCN(c3cc(C(F)(F)F)ccc3Cl)C2=O)cc1` [Example 12, 4-(3-(2-chloro-5-(trifluoromethyl)phenyl)-2-oxoimidazolidin-1-yl)benzenesulfonamide]: the Ki on recombinant human CAIX and at recombinant human CAXII was under 10 nM in each case.
Consider `NS(=O)(=O)c1ccc(N2CCN(c3cc(C(F)(F)F)ccc3F)C2=O)cc1` [Example 13, 4-(3-(2-fluoro-5-(trifluoromethyl)phenyl)-2-oxoimidazolidin-1-yl)benzenesulfonamide], for which the Ki at recombinant human CAIX and at recombinant human CAXII was under 10 nM in each case.
In the case of `COCCOc1ccc(N2CCN(c3ccc(S(N)(=O)=O)cc3)C2=O)cc1` [Example 14, 4-(3-(4-(2-methoxyethoxy)phenyl)-2-oxoimidazolidin-1-yl)benzenesulfonamide], the Ki on recombinant human CAIX and at recombinant human CAXII was under 10 nM in each case.
As to `CCCCOc1ccc(N2CCN(c3ccc(S(N)(=O)=O)cc3)C2=O)cc1` [Example 15, 4-(3-(4-butoxyphenyl)-2-oxoimidazolidin-1-yl)benzenesulfonamide], at recombinant human CAIX, the Ki is under 10 nM. Moreover, the “Ki (nM) CAXII” value on recombinant human CAXII is “++ (“++” represents the 100 nM<Ki<10 nM)”.
For the molecule `N#Cc1ccc(N2CCN(c3ccc(S(N)(=O)=O)cc3)C2=O)cc1` [Example 16, 4-(3-(4-cyanophenyl)-2-oxoimidazolidin-1-yl)benzenesulfonamide], the Ki at recombinant human CAIX and on recombinant human CAXII was under 10 nM in each case.
With `CC(=O)c1ccc(N2CCN(c3ccc(S(N)(=O)=O)cc3)C2=O)cc1` [Example 17, 4-(3-(4-acetylphenyl)-2-oxoimidazolidin-1-yl)benzenesulfonamide], the Ki at recombinant human CAIX and at recombinant human CAXII was under 10 nM throughout.
For the molecule `NS(=O)(=O)c1ccc(N2CCN(c3ccc(F)cc3)C2=O)cc1` [Example 21, 4-(3-(4-fluorophenyl)-2-oxoimidazolidin-1-yl)benzenesulfonamide], on recombinant human CAIX, the Ki is under 10 nM. Besides, on recombinant human CAXII, the “Ki (nM) CAXII” value is on record as “++ (“++” represents the 100 nM<Ki<10 nM)”.
As for `NS(=O)(=O)c1ccc(N2CCN(c3ccc(F)c(Cl)c3)C2=O)cc1` [Example 22, 4-(3-(3-chloro-4-fluorophenyl)-2-oxoimidazolidin-1-yl)benzenesulfonamide], on recombinant human CAIX, the Ki was under 10 nM. Besides, the “Ki (nM) CAXII” value at recombinant human CAXII is listed as “++ (“++” represents the 100 nM<Ki<10 nM)”.
On to `NS(=O)(=O)c1ccc(N2CCN(c3cc(F)cc(F)c3)C2=O)cc1` [Example 23, 4-(3-(3,5-difluorophenyl)-2-oxoimidazolidin-1-yl)benzenesulfonamide], for which the Ki on recombinant human CAIX and on recombinant human CAXII was under 10 nM each time.
For the molecule `NS(=O)(=O)c1ccc(N2CCN(c3ccc(F)c(F)c3)C2=O)cc1` [Example 24, 4-(3-(3,4-difluorophenyl)-2-oxoimidazolidin-1-yl)benzenesulfonamide], the Ki at recombinant human CAIX was under 10 nM. Also, the “Ki (nM) CAXII” value on recombinant human CAXII is reported as “++ (“++” represents the 100 nM<Ki<10 nM)”.
For `COc1ccc(N2CCN(c3ccc(S(N)(=O)=O)cc3)C2=O)c(F)c1` [Example 25, 4-(3-(2-fluoro-4-methoxyphenyl)-2-oxoimidazolidin-1-yl)benzenesulfonamide], in that order: under 10 nM and “++ (“++” represents the 100 nM<Ki<10 nM)”.
On to `CCCCOc1ccc(N2CCN(c3ccc(S(N)(=O)=O)cc3)C2=O)c(F)c1` [Example 26, 4-(3-(4-butoxy-2-fluorophenyl)-2-oxoimidazolidin-1-yl)benzenesulfonamide], for which, at recombinant human CAIX, the Ki is under 10 nM. Besides, the “Ki (nM) CAXII” value at recombinant human CAXII is listed as “++ (“++” represents the 100 nM<Ki<10 nM)”.
With `NS(=O)(=O)c1ccc(N2CCN(c3ccc(Cl)c(F)c3)C2=O)cc1` [Example 27, 4-(3-(4-chloro-3-fluorophenyl)-2-oxoimidazolidin-1-yl)benzenesulfonamide], the Ki at recombinant human CAIX is under 10 nM. Further, on recombinant human CAXII, the “Ki (nM) CAXII” value is reported as “++ (“++” represents the 100 nM<Ki<10 nM)”.
Regarding `NS(=O)(=O)c1ccc(N2CCN(c3ccc(F)cn3)C2=O)cc1` [Example 28.1, 4-(3-(5-fluoropyridin-2-yl)-2-oxoimidazolidin-1-yl)benzenesulfonamide], the inhibition constant (Ki) on recombinant human CAIX and at recombinant human CAXII was over 100000 nM throughout.
As for `CN1CCN(c2ccc(N3CCN(c4ccc(S(N)(=O)=O)cc4)C3=O)c(F)c2)CC1` [Example 28.2, 4-(3-(2-fluoro-4-(4-methylpiperazin-1-yl)phenyl)-2-oxoimidazolidin-1-yl)benzenesulfonamide], the Ki on recombinant human CAIX was over 100000 nM; on recombinant human CAXII, under 10 nM.
`NS(=O)(=O)c1ccc(N2CCN(c3ccc(N4CCOCC4)cc3F)C2=O)cc1` [Example 28.3, 4-(3-(2-fluoro-4-morpholinophenyl)-2-oxoimidazolidin-1-yl)benzenesulfonamide]: the Ki on recombinant human CAIX and at recombinant human CAXII was under 10 nM in each case.
